In patent US11839614B2, “Methods for treating or mitigating cardiotoxicity characterized by inhibition of adenosine A2 signaling and/or adenosine A2 receptor expression” (INTRA-CELLULAR THERAPIES, INC., priority 2018, dated 2023):

Experiments:
[1] = system: adult rabbit myocytes; assay: Contraction and calcium transients in isolated rabbit cardiomyocytes; format: cell-based
Description: To test whether PDE1 inhibition directly impacts cardiomyocyte contraction and calcium transients, studies are carried out on normal adult rabbit myocytes. […] As PDE1 requires sufficient cAMP and Ca^2+ to be impactful, a dose response was performed to the adenylate cyclase activator, forskolin (FSK) to determine the lowest dose producing a modest but significant inotropic effect (1 μM).
Rabbit myocytes were isolated to determine the effect of PDE1 inhibition on cardiomyocyte contraction and whole cell Ca2+ transients, and to compare the results to those with a PDE3 inhibitor, cilostamide (Cil, 1 μM).
An alternative approach to augmenting cAMP independent of […] is to directly stimulate adenylate cyclase using forskolin (Fsk). A dose response study was carried out to identify a non-saturating Fsk dose that still generated significant inotropic effects (1 μM).

[2] = Plasma level in rabbits (LC/MS-MS); format: in vivo; conditions: male, New Zealand White, iv, rabbit, 0.1 mg/kg i.v.
Description: (§1) New Zealand White rabbits (male, 2-3 kg) are sedated with 35 mg/kg ketamine and 5 mg/kg xylazine, intubated and ventilated (Model 683, Harvard Apparatus, Holliston, Mass.), with anesthesia maintained with isoflurane inhalation (1-2%). A pressure-volume catheter (SPR-894, Millar, Inc., Houston, Tex.) is inserted via the common carotid artery and advanced to the LV apex, and a 2-Fr pacing catheter is positioned in the right atrium via the right jugular vein to provide atrial pacing. […] The parallel conductance is determined by the hypertonic saline injection method. Rabbits are infused with 6% hetastarch in saline during the procedure to stabilize arterial pressure.
(§2) Intravenous blood is placed in K2EDTA tubes, centrifuged at 2,000 g for 15 min, plasma decanted, and stored frozen. Compound 1 levels are assessed by a rapid, sensitive liquid chromatography-tandem mass spectrometric (LC/MS-MS) method.
The mobile phase consists of a gradient of 60-100% methanol over 4.5 minutes in 5 mM ammonium bicarbonate with 0.2% NH3H2O, pumped at a flow rate of 0.8 mL/min. Analysis time is 4.5 min and both the analyte and internal standard eluted around 2.0 min. Multiple reactions monitoring (MRM) mode is used to detect Compound 1. MS is operated in the positive ion detection mode. […] The lower limit of quantification (LLOQ) for plasma was 0.02 ng/mL.

[3] = Plasma Compound 1 levels in dogs (LC/MS-MS); format: in vivo; conditions: dog; for concentration at 10 min / concentration at 30 min / concentration at 120 min: mongrel, plasma; for concentration at 10 min / concentration at 30 min: iv; for concentration at 120 min: po, 10 mg, 10 mg P.O., 120 min post dose
Description: Dogs are studied in the conscious state before and after inducing dilated cardiomyopathy by tachypacing for two weeks at 200 bpm.
The study employs two doses, 0.01 and 0.1 mg/kg, the latter administered 30 minutes after the first.
as §2
The mobile phase consists of a gradient of 60-100% methanol over 4.5 minutes in 5 mM ammonium bicarbonate with 0.2% NH3H2O, pumped at a flow rate of 0.8 mL/min. Analysis time is 4.5 min and both the analyte and internal standard eluted around 2.0 min. Multiple reactions monitoring (MRM) mode is used to detect Compound 1. MS is operated in the positive ion detection mode. […] Calibration curves are linear from 0.02-500 ng/mL in dog plasma sample matrices. The lower limit of quantification (LLOQ) for plasma was 0.02 ng/mL.

[4] = target: PDE4D (Homo sapiens, UniProt Q08499)
Text: (§3) Additional pharmaceuticals used in the following examples are dobutamine (Hospira Inc., Lake Forest, Ill.), esmolol HCl (Mylan, Rockford, Ill.), MRS1754 (Tocris Bioscience, Bristol, UK), and Hespan (6% Hetastarch in 0.9% NaCl B. Braun Medical Inc., Bethlehem, Pa.).

[5] = system: rabbit heart and vasculature; assay: Anesthetized rabbit pressure-volume hemodynamics with or without esmolol or MRS-1754; format: in vivo
Text: Cyclic AMP is generated largely by transmembrane adenylyl cyclases activated via stimulatory G protein (Gs), with β-adrenergic, adenosine (primarily A2B), glucagon, prostanoids, histamine, and serotonin all coupling to Gs in cardiomyocytes. The present studies focus on beta-adrenergic and adenosine receptors, and for the latter, concentrated on the A2B receptor, which has been reported to directly stimulate cAMP-dependent contractility. […] Relaxation changes are also modest with LV preload (end-diastolic and volume) unaltered; however, the combined vasodilator-inotropic response doubled ventricular/arterial coupling ratio, Ees/Ea.
as §1

[6] = target: T1, r-hPDE1C (Homo sapiens, UniProt Q14123); assay: Ki for full-length recombinant PDE1C; format: biochemical
T1 construct: Its Kis for full-length recombinant r-hPDE1A, 1B, and 1C are 34, 380, and 37 pM
Text: as §3

[7] = system: myocyte cAMP; assay: Whole cell cAMP in isolated rabbit myocytes; format: cell-based; conditions: agent added to Fsk
Text: This is consistent with prior studies showing locally generated cAMP from β-AR and its modulation by PDE3 occur in local subcellular domains that are not easily detected in whole cell lysates32.

[8] = system: murine heart; assay: Acute cardiovascular effects in intact mice; format: in vivo, mouse; conditions: intravenous bolus 0.1, 0.5 mg/kg
Description: To test this, mice were administered the same or higher intravenous bolus doses (0.1, 0.5 mg/kg) as used in dogs and rabbits, and studied using a similar preparation to the rabbit.

[9] = system: plasma cAMP and cGMP; assay: Plasma cAMP and cGMP by ELISA in dogs; format: in vivo, dog
Description: Blood plasma is obtained from these animals, and cAMP and cGMP are assayed by ELISA.

[10] = system: normal and failing canine hearts; assay: Conscious dog pressure-volume hemodynamic analysis, normal and failing hearts; format: in vivo
Text: Dogs are studied in the conscious state before and after inducing dilated cardiomyopathy by tachypacing for two weeks at 200 bpm. […]
Load insensitive indexes of contractility (dP/dtmax/IP and PRSW) increased.

[11] = Compound 1 added after forskolin 1 μM
[12] = agent added to non-saturating Iso
[13] = agent alone: Cil 1 μM, Compound 1 1 μM, Iso non-saturating dose
[14] = agent alone: Iso 50 nM, Compound 1 up to 1 mM, IBMX 100 μM
[15] = 0.1 mg/kg, plasma Compound 1 concentration, normal dogs, 0.1 mg/kg i.v.
[16] = 0.1 mg/kg, plasma Compound 1 level, failing dogs, IV administration
[17] = control and HF dogs, 10 mg/kg oral, two hours

Chain of PDE4D (Q08499 whole entry, species assumed): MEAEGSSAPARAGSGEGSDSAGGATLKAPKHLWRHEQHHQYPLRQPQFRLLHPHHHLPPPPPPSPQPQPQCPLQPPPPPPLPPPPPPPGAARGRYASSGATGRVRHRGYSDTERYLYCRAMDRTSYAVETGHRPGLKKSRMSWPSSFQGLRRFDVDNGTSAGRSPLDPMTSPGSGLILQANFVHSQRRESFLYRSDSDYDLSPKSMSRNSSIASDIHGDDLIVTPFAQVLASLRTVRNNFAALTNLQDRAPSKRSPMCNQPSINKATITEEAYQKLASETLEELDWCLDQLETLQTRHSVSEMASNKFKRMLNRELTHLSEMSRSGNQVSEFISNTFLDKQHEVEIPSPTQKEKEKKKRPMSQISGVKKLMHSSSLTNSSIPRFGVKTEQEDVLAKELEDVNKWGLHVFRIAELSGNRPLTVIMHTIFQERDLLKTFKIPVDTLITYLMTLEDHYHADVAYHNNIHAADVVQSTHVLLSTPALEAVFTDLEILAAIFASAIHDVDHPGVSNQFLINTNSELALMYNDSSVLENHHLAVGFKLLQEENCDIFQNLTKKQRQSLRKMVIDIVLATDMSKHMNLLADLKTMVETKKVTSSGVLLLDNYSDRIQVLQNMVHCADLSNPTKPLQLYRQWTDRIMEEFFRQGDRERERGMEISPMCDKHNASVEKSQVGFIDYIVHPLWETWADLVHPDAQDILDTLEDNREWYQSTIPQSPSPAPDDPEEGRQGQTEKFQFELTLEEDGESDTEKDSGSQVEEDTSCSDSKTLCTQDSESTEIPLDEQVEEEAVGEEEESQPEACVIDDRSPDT
T1 sequence (Q14123 whole entry): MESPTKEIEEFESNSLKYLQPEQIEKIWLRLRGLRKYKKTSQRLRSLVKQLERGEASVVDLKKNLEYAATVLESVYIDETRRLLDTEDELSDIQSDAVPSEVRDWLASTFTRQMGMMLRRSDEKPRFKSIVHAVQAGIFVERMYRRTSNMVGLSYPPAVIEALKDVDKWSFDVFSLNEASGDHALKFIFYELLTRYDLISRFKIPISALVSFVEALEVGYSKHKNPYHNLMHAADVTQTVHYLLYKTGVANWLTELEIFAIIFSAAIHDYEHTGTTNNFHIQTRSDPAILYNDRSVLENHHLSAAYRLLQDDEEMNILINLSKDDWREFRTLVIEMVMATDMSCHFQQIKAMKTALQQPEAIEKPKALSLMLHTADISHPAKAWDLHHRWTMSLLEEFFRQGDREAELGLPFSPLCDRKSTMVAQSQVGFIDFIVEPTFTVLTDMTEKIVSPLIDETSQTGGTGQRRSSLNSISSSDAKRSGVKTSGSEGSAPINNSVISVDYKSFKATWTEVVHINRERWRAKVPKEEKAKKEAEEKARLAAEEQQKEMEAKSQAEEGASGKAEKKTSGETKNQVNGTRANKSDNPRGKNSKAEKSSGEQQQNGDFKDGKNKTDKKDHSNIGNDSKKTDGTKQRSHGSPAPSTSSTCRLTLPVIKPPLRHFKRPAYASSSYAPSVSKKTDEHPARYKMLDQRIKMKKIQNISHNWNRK

CN1C(=O)c2c(nn(Cc3ccc(-c4cccc(F)n4)cc3)c2Nc2ccccc2)N2C1=N[C@@H]1CCC[C@@H]12 [Compound 1, (6aR,9aS)-2-(4-(6-fluoropyridin-2-yl)benzyl)-5-methyl-3-(phenyl-amino)-5,6a,7,8,9,9a-hexahydrocyclopenta-[4,5]imidazo[1,2-a]pyrazolo[4,3-e]pyrimidin-4-(2H)-one monophosphate]
peak calcium transient [1, 11]: remains unaltered | relaxation/calcium decay rates [1, 11]: significantly increases | sarcomere shortening [1, 11]: significantly increases | shortening of calcium relaxation time constant, as share of the maximal achieved with IBMX ([1]; FSK+Compound 1 versus FSK+IBMX): 67% | Ca2+ transient decay rate ([1]; agent added to Fsk 1 μM): enhanced the Ca2+ decay rate similarly to Cil | peak Ca2+ transient ([1]; agent added to Fsk 1 μM): no corresponding increase in peak Ca2+ transient | sarcomere shortening ([1]; agent added to Fsk 1 μM): sarcomere shortening rose as with Cil | peak-Ca2+ [1, 12]: no longer significantly different from pre-Iso baseline | sarcomere shortening [1, 12]: did not change further | decay kinetics / relaxation times [1, 13]: this was not observed | peak-Ca2+ transient [1, 13]: this was not observed | percent sarcomere shortening [1, 13]: this was not observed | contraction/calcium decay time or rates [1, 14]: no effect | peak Ca2+ transient [1, 14]: no effect | sarcomere shortening [1, 14]: no effect | concentration at 15 min [2]: 213 ± 88 ng/mL | therapeutic levels (plasma) ([3]; in vivo): 100 to 300 ng/mL | concentration at 10 min ([3]; 0.01 mg/kg, plasma Compound 1 concentration, dogs, 0.01 mg/kg i.v.): 23.6 ± 8.6 ng/mL | concentration at 10 min [3, 15]: 211 ± 60.7 ng/mL | concentration at 30 min [3, 15]: 94.5 ± 21.2 ng/mL | concentration at 10 min [3, 16]: 441 ± 92.5 ng/mL | concentration at 30 min [3, 16]: 185 ± 28.9 ng/mL | concentration at 120 min ([3]; plasma Compound 1 concentration, HF dogs): 178 ± 100 ng/mL | concentration at 120 min ([3]; plasma Compound 1 concentration, normal dogs): 104 ± 8.5 ng/mL | greater activity toward PDE1 isoforms compared with PDE4D [4]: > 1000 fold | cardiac output ([5]; 0.1 mg/kg i.v. bolus alone): increases cardiac output | heart rate ([5]; 0.1 mg/kg i.v. bolus alone): modestly elevated heart rate | rise in end-systolic elastance ([5]; 0.1 mg/kg i.v. bolus alone): 50% | rise in pre-load recruitable stroke work ([5]; 0.1 mg/kg i.v. bolus alone): 50% | systemic resistance ([5]; 0.1 mg/kg i.v. bolus alone): lowered systemic resistance | systolic pressure ([5]; 0.1 mg/kg i.v. bolus alone): no change in systolic pressure | contractile and vasodilation effects ([5]; Compound 1 after esmolol): remain intact | heart rate ([5]; Compound 1 after esmolol): no longer increases HR | responses with heart rate fixed compared with heart rate allowed to change ([5]; atrially paced at ~20% above sinus node rate): nearly identical responses | Ki [6]: 0.037 nM | whole cell cAMP [7]: substantially increased | hemodynamic or cardiac changes [8]: failed to show any significant hemodynamic or cardiac changes | plasma cAMP ([9]; HF dogs, single drugs): not significantly changed | plasma cGMP ([9]; all conditions, normal and HF models): remains unchanged | hemodynamic responses in all but heart rate ([10]; 0.01 mg/kg i.v.): negligible | hemodynamic responses ([10]; 0.1 mg/kg i.v.): positive chronotropic, inotropic, lusitropic, and vasodilator responses were observed | PV loop area (stroke work) and contractility ([10]; 10 mg/kg Compound 1 added to 10 μg/kg/min dobutamine, control and failing hearts): further enhanced both | increase in heart rate ([10]; HF animals, 10 mg/kg oral): blunted | augmentation of cardiac output ([10]; HF dogs, 10 mg/kg oral, two hours): 32% | LV preload (end-diastolic volume) or systolic pressure [10, 17]: little change | contractility (end-systolic elastance) [10, 17]: increase in contractility | augmentation of cardiac output ([10]; control dogs, 10 mg/kg oral, two hours): 50% | inotropy, lusitropy and vasodilation ([10]; heart failure dogs, 0.1 mg/kg i.v.): remained significantly improved | time to peak hemodynamic response ([10]; intravenous, normal and HF dogs): 5 to 10 min | heart rate ([10]; normal dogs, 10 mg/kg oral): increased heart rate | relaxation (dP/dtmin and relaxation time constant tau) ([10]; normal dogs, 10 mg/kg oral): improved | systemic vascular resistance ([10]; normal dogs, 10 mg/kg oral): reduced systemic vascular resistance | systolic blood pressure ([10]; normal dogs, 10 mg/kg oral): without altering systolic blood pressure
